Assay results from the OligoGym collection.
“And” between values parts separate entries of the source, which are not always exact repeats. Equal values may be shown once. HELM strings list units from the 5' end as sugar, base in round brackets, then linkage (d deoxyribose, r ribose, m 2'-O-methyl, p phosphodiester). Strings are as the collection lists them, not checked against the first reports. ss, as = sense and antisense strand; [fl2r] = 2'-fluoro

Settings: siRNA
Also: test system not given here.

Substance	target mRNA knockdown
RNA1{r(G)p.m(C)p.r(A)p.r(G)p.r(A)p.r(G)p.r(A)p.r(A)p.r(U)p.r(C)p.m(U)p.r(A)p.r(C)p.r(C)p.r(U)p.r(U)p.r(U)p.r(C)p.r(C)p.r(T)p.r(T)}|RNA2{r(G)p.r(G)p.r(A)p.r(A)p.r(A)p.r(G)p.r(G)p.m(U)p.r(A)p.r(G)p.r(A)p.r(U)p.r(U)p.r(C)p.r(U)p.r(C)p.m(U)p.r(G)p.r(C)p.r(T)p.r(T)}$$$RNA1{StrandType:ss}|RNA2{StrandType:as}$	75%
RNA1{r(G)p.m(C)p.r(A)p.r(G)p.r(C)p.r(A)p.r(C)p.r(G)p.r(A)p.r(C)p.r(U)p.r(U)p.r(C)p.r(U)p.r(U)p.r(C)p.r(A)p.r(A)p.r(G)p.r(U)p.r(U)}|RNA2{r(C)p.m(U)p.r(U)p.r(G)p.r(A)p.r(A)p.r(G)p.r(A)p.r(A)p.r(G)p.r(U)p.r(C)p.r(G)p.r(U)p.r(G)p.r(C)p.r(U)p.r(G)p.r(C)p.r(U)p.r(U)}$$$RNA1{StrandType:ss}|RNA2{StrandType:as}$	62.7%
RNA1{r(G)p.m(C)p.r(A)p.r(G)p.r(C)p.r(A)p.r(C)p.r(G)p.r(A)p.r(C)p.r(U)p.r(U)p.r(C)p.r(U)p.r(U)p.r(C)p.r(A)p.r(A)p.r(G)p.r(U)p.r(U)}|RNA2{r(C)p.r(U)p.r(U)p.r(G)p.r(A)p.r(A)p.r(G)p.r(A)p.r(A)p.r(G)p.r(U)p.r(C)p.r(G)p.r(U)p.r(G)p.r(C)p.r(U)p.r(G)p.r(C)p.r(U)p.r(U)}$$$RNA1{StrandType:ss}|RNA2{StrandType:as}$	71.7%
RNA1{r(G)p.m(C)p.r(A)p.r(G)p.r(C)p.r(A)p.r(C)p.r(G)p.r(A)p.r(C)p.r(U)p.r(U)p.r(C)p.r(U)p.r(U)p.r(C)p.r(A)p.r(A)p.r(G)p.r(U)p.r(U)}|RNA2{r(U)p.[fl2r](U)p.r(C)p.r(G)p.r(U)p.r(C)p.r(G)p.r(U)p.r(G)p.r(C)p.r(U)p.r(G)p.r(A)p.r(A)p.r(G)p.r(A)p.r(A)p.r(G)p.r(U)p.r(U)p.r(C)}$$$RNA1{StrandType:ss}|RNA2{StrandType:as}$	77.2%
RNA1{r(G)p.m(U)p.r(A)p.r(C)p.r(U)p.r(C)p.m(U)p.r(G)p.r(A)p.m(U)p.r(G)p.r(A)p.r(G)p.r(G)p.r(A)p.r(A)p.r(G)p.r(A)p.r(G)p.r(T)p.r(T)}|RNA2{r(C)p.r(U)p.r(C)p.r(U)p.r(U)p.r(C)p.r(C)p.r(U)p.m(C)p.r(A)p.r(U)p.m(C)p.r(A)p.r(G)p.r(A)p.r(G)p.r(U)p.m(A)p.r(C)p.r(T)p.r(T)}$$$RNA1{StrandType:ss}|RNA2{StrandType:as}$	68%
RNA1{r(G)p.m(U)p.r(A)p.r(C)p.r(U)p.r(C)p.r(U)p.r(G)p.r(A)p.r(U)p.r(G)p.r(A)p.r(G)p.r(G)p.r(A)p.r(A)p.r(G)p.r(A)p.r(G)p.r(T)p.r(T)}|RNA2{r(C)p.r(U)p.r(C)p.r(U)p.r(U)p.r(C)p.r(C)p.r(U)p.r(C)p.r(A)p.r(U)p.r(C)p.r(A)p.r(G)p.r(A)p.r(G)p.r(U)p.r(A)p.r(C)p.r(T)p.r(T)}$$$RNA1{StrandType:ss}|RNA2{StrandType:as}$	69%
RNA1{r(G)p.m(U)p.r(A)p.r(U)p.r(C)p.r(C)p.r(G)p.r(A)p.r(A)p.m(G)p.m(A)p.r(C)p.r(G)p.r(A)p.r(A)p.r(G)p.r(C)p.m(U)p.r(A)p.r(T)p.r(T)}|RNA2{m(U)p.r(A)p.r(G)p.r(C)p.r(U)p.r(U)p.r(C)p.r(G)p.r(U)p.r(C)p.r(U)p.r(U)p.r(C)p.r(G)p.r(G)p.r(A)p.m(U)p.r(A)p.r(C)p.r(T)p.r(T)}$$$RNA1{StrandType:ss}|RNA2{StrandType:as}$	92%
RNA1{r(G)p.r(A)p.m(C)p.r(A)p.r(A)p.r(G)p.r(G)p.r(G)p.r(A)p.r(A)p.r(G)p.r(G)p.r(U)p.m(U)p.r(A)p.r(G)p.r(C)p.r(C)p.r(U)p.r(T)p.r(T)}|RNA2{r(A)p.r(G)p.r(G)p.r(C)p.m(U)p.r(A)p.r(A)p.r(C)p.r(C)p.r(U)p.r(U)p.r(C)p.r(C)p.r(C)p.r(U)p.m(U)p.r(G)p.r(U)p.r(C)p.r(T)p.r(T)}$$$RNA1{StrandType:ss}|RNA2{StrandType:as}$	68%
RNA1{r(G)p.r(A)p.m(U)p.r(A)p.r(C)p.r(U)p.r(U)p.r(C)p.m(U)p.r(G)p.r(G)p.r(U)p.r(U)p.r(C)p.r(C)p.r(C)p.r(U)p.r(C)p.r(C)p.r(T)p.r(T)}|RNA2{r(G)p.r(G)p.r(A)p.r(G)p.r(G)p.r(G)p.r(A)p.r(A)p.r(C)p.m(C)p.r(A)p.r(G)p.r(A)p.r(A)p.r(G)p.m(U)p.r(A)p.r(U)p.r(C)p.r(T)p.r(T)}$$$RNA1{StrandType:ss}|RNA2{StrandType:as}$	45%
RNA1{r(G)p.r(A)p.m(U)p.r(A)p.r(C)p.r(U)p.r(U)p.r(C)p.r(U)p.r(G)p.r(G)p.r(U)p.r(U)p.r(C)p.r(C)p.r(C)p.r(U)p.r(C)p.r(C)p.r(T)p.r(T)}|RNA2{r(G)p.r(G)p.r(A)p.r(G)p.r(G)p.r(G)p.r(A)p.r(A)p.r(C)p.r(C)p.r(A)p.r(G)p.r(A)p.r(A)p.r(G)p.m(U)p.r(A)p.r(U)p.r(C)p.r(T)p.r(T)}$$$RNA1{StrandType:ss}|RNA2{StrandType:as}$	46%
RNA1{r(G)p.r(A)p.m(U)p.r(A)p.r(G)p.r(G)p.r(A)p.r(A)p.r(G)p.r(G)p.r(G)p.m(G)p.r(C)p.r(U)p.r(U)p.m(C)p.r(A)p.r(G)p.r(C)p.r(T)p.r(T)}|RNA2{r(G)p.r(C)p.m(U)p.r(G)p.r(A)p.r(A)p.r(G)p.r(C)p.r(C)p.r(C)p.r(C)p.r(U)p.r(U)p.r(C)p.r(C)p.m(U)p.r(A)p.r(U)p.r(C)p.r(T)p.r(T)}$$$RNA1{StrandType:ss}|RNA2{StrandType:as}$	42%
RNA1{r(G)p.r(A)p.m(U)p.r(A)p.r(G)p.r(G)p.r(A)p.r(A)p.r(G)p.r(G)p.r(G)p.r(G)p.r(C)p.r(U)p.r(U)p.r(C)p.r(A)p.r(G)p.r(C)p.r(T)p.r(T)}|RNA2{r(G)p.r(C)p.r(U)p.r(G)p.r(A)p.r(A)p.r(G)p.r(C)p.r(C)p.r(C)p.r(C)p.r(U)p.r(U)p.r(C)p.r(C)p.m(U)p.m(A)p.r(U)p.r(C)p.r(T)p.r(T)}$$$RNA1{StrandType:ss}|RNA2{StrandType:as}$	41%
RNA1{r(G)p.r(A)p.r(A)p.m(U)p.r(A)p.r(A)p.r(C)p.r(C)p.m(U)p.r(G)p.r(A)p.r(A)p.r(C)p.r(G)p.r(U)p.m(C)p.r(A)p.r(C)p.r(C)p.r(T)p.r(T)}|RNA2{r(G)p.r(G)p.m(U)p.r(G)p.r(A)p.r(C)p.r(G)p.r(U)p.r(U)p.m(C)p.r(A)p.r(G)p.r(G)p.r(U)p.m(U)p.r(A)p.r(U)p.r(U)p.r(C)p.r(T)p.r(T)}$$$RNA1{StrandType:ss}|RNA2{StrandType:as}$	51% and 69%
RNA1{r(G)p.r(A)p.r(A)p.m(U)p.r(A)p.r(A)p.r(C)p.r(C)p.r(U)p.r(G)p.r(A)p.r(A)p.r(C)p.r(G)p.r(U)p.m(C)p.r(A)p.r(C)p.r(C)p.r(T)p.r(T)}|RNA2{r(G)p.r(G)p.r(U)p.r(G)p.r(A)p.r(C)p.r(G)p.r(U)p.r(U)p.m(C)p.r(A)p.r(G)p.r(G)p.r(U)p.r(U)p.r(A)p.r(U)p.r(U)p.r(C)p.r(T)p.r(T)}$$$RNA1{StrandType:ss}|RNA2{StrandType:as}$	71%
RNA1{r(G)p.r(A)p.r(A)p.m(U)p.r(A)p.r(A)p.r(C)p.r(C)p.r(U)p.r(G)p.r(A)p.r(A)p.r(C)p.r(G)p.r(U)p.r(C)p.r(A)p.r(C)p.r(C)p.r(T)p.r(T)}|RNA2{r(G)p.r(G)p.r(U)p.r(G)p.r(A)p.r(C)p.r(G)p.r(U)p.r(U)p.r(C)p.r(A)p.r(G)p.r(G)p.r(U)p.m(U)p.r(A)p.r(U)p.r(U)p.r(C)p.r(T)p.r(T)}$$$RNA1{StrandType:ss}|RNA2{StrandType:as}$	55%
RNA1{r(G)p.r(A)p.r(A)p.r(A)p.r(A)p.r(C)p.r(G)p.r(C)p.r(U)p.m(U)p.r(G)p.m(U)p.r(A)p.r(A)p.r(A)p.r(G)p.r(C)p.r(C)p.r(G)p.r(T)p.r(T)}|RNA2{r(C)p.r(G)p.r(G)p.r(C)p.r(U)p.r(U)p.m(U)p.r(A)p.m(C)p.r(A)p.r(A)p.r(G)p.r(C)p.r(G)p.r(U)p.r(U)p.r(U)p.r(U)p.r(C)p.r(T)p.r(T)}$$$RNA1{StrandType:ss}|RNA2{StrandType:as}$	54%
RNA1{r(G)p.r(A)p.r(A)p.r(A)p.r(A)p.r(C)p.r(G)p.r(C)p.r(U)p.r(U)p.r(G)p.r(U)p.r(A)p.r(A)p.r(A)p.r(G)p.r(C)p.r(C)p.r(G)p.r(T)p.r(T)}|RNA2{r(C)p.r(G)p.r(G)p.r(C)p.r(U)p.r(U)p.m(U)p.r(A)p.r(C)p.r(A)p.r(A)p.r(G)p.r(C)p.r(G)p.r(U)p.r(U)p.r(U)p.r(U)p.r(C)p.r(T)p.r(T)}$$$RNA1{StrandType:ss}|RNA2{StrandType:as}$	56%
RNA1{r(G)p.r(A)p.r(A)p.r(A)p.r(C)p.m(U)p.m(G)p.r(G)p.m(U)p.r(A)p.r(C)p.m(U)p.r(U)p.r(U)p.r(C)p.r(C)p.r(C)p.r(C)p.r(C)p.r(T)p.r(T)}|RNA2{r(G)p.r(G)p.r(G)p.r(G)p.r(G)p.r(A)p.r(A)p.r(A)p.r(G)p.m(U)p.r(A)p.r(C)p.m(C)p.m(A)p.r(G)p.r(U)p.r(U)p.r(U)p.r(C)p.r(T)p.r(T)}$$$RNA1{StrandType:ss}|RNA2{StrandType:as}$	85%
RNA1{r(G)p.r(A)p.r(A)p.r(A)p.r(C)p.m(U)p.m(G)p.r(G)p.m(U)p.r(A)p.r(C)p.r(U)p.r(U)p.r(U)p.r(C)p.r(C)p.r(C)p.r(C)p.r(C)p.r(T)p.r(T)}|RNA2{r(G)p.r(G)p.r(G)p.r(G)p.r(G)p.r(A)p.r(A)p.r(A)p.r(G)p.m(U)p.r(A)p.r(C)p.r(C)p.r(A)p.r(G)p.r(U)p.r(U)p.r(U)p.r(C)p.r(T)p.r(T)}$$$RNA1{StrandType:ss}|RNA2{StrandType:as}$	88%
RNA1{r(G)p.r(A)p.r(A)p.r(A)p.r(C)p.r(U)p.r(G)p.r(G)p.[fl2r](U)p.r(A)p.r(C)p.r(U)p.r(U)p.r(U)p.r(C)p.r(C)p.r(C)p.r(C)p.r(C)p.r(T)p.r(T)}|RNA2{r(G)p.r(G)p.r(G)p.r(G)p.r(G)p.r(A)p.r(A)p.r(A)p.r(G)p.[fl2r](U)p.r(A)p.r(C)p.r(C)p.r(A)p.r(G)p.r(U)p.r(U)p.r(U)p.r(C)p.r(T)p.r(T)}$$$RNA1{StrandType:ss}|RNA2{StrandType:as}$	58%
RNA1{r(G)p.r(A)p.r(A)p.r(A)p.r(C)p.r(U)p.r(G)p.r(G)p.r(U)p.r(A)p.r(C)p.r(U)p.r(U)p.r(U)p.r(C)p.r(C)p.r(C)p.r(C)p.r(C)p.r(T)p.r(T)}|RNA2{r(G)p.r(G)p.r(G)p.r(G)p.r(G)p.r(A)p.r(A)p.r(A)p.r(G)p.[fl2r](U)p.r(A)p.r(C)p.r(C)p.r(A)p.r(G)p.[fl2r](U)p.[fl2r](U)p.[fl2r](U)p.r(C)p.r(T)p.r(T)}$$$RNA1{StrandType:ss}|RNA2{StrandType:as}$	26%
